Laboratory results taken from patent US20050154230A1, “Urea derivatives” (Bayer HealthCare AG, priority 2001, published 2005).
Read-outs that look alike come from different tables or passages of the source.

Assays:
human VR1 = target: T1, human VR1 (Homo sapiens, UniProt Q8NER1); assay: Capsaicin-induced Ca2+ influx in the human VR1-transfected CHO cell line (Assay 1); format: cell-based
T1 construct: expressed in transfected cells
Method: [Measurement of Capsaicin-Induced Ca^2+ Influx in the Human VR1-Transfected CHO Cell Line] (Assay 1)
(1) Establishment of the Human VR1-CHOluc9aeq Cell Line
The cloned hVR1 cDNA was constructed with pcDNA3 vector and transfected into a CHOluc9aeq cell line. The cell line contains aequorin and CRE-luciferase reporter genes as read-out signals. The transfectants were cloned by limiting dilution in selection medium (DMEM/F12 medium (Gibco BRL) supplemented with 10% FCS, 1.4 mM Sodium pyruvate, 20 mM HEPES, 0.15% Sodium bicarbonate, 100 U/ml penicillin, 100 μg/ml streptomycin, 2 mM glutamine, non-essential amino acids and 2 mg/ml G418). Ca^2+ influx was examined in the capsaicin-stimulated clones. […] The human VR1-CHOluc9aeq cells were maintained in the selection medium and passaged every 3-4 days at 1-2.5×10^5 cells/flask ([…]).
(2) Measurement of Ca^2+ Influx Using FDSS-3000
Human VR1-CHOluc9aeq cells were suspended in a culture medium which is the same as the selection medium except for G418 and seeded at a density of 1,000 cells per well into 384-well plates (black walled clear-base/Nalge Nunc International). […] After washing twice with assay buffer the cells were incubated with a test compound or vehicle for 20 min at 25° C. […] Integral R was calculated and compared with controls.

[1] = human VR1-CHOluc9aeq cells, 10 nM capsaicin, compound purity about 40 to 90%, read-out: hVR1 class

T1 sequence (Q8NER1 whole entry): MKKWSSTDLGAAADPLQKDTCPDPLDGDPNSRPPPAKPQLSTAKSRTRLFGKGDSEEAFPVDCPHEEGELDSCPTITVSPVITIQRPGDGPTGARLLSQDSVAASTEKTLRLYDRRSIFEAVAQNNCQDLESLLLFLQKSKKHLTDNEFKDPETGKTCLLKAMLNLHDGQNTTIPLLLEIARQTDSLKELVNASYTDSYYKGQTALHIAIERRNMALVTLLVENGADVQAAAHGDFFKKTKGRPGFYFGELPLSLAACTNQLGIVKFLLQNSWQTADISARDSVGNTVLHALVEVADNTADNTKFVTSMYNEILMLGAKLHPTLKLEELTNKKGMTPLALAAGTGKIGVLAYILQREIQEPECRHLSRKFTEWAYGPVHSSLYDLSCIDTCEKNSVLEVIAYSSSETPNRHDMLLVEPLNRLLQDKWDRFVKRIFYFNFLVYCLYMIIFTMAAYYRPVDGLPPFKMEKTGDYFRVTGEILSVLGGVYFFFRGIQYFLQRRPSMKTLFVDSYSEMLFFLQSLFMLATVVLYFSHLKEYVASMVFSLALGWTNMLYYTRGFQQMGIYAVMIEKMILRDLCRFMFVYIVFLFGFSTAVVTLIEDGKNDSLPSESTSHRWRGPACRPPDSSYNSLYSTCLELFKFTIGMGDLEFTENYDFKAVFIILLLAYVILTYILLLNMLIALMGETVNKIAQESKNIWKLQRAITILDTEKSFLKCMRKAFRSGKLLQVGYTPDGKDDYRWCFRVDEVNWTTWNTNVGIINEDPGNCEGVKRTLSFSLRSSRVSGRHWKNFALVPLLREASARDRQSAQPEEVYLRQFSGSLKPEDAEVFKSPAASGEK

| SMILES | IC50 (human VR1; [1]) [nM] | other results |
| --- | --- | --- |
| O=C(Nc1cccc(OC(F)(F)F)c1)Nc1ccccc1CCO [Example 2-2, N-[2-(2-hydroxyethyl)phenyl]-N′-[3(trifluoromethoxy)phenyl]urea] | – | IC50 (human VR1): < 100 nM |
| COc1ccc(COc2cc(CNC(=O)Nc3ccccc3)ccc2OC)cc1 [Example 6] | 500 to 1000 | – |
| COc1ccc(COc2cc(CNC(=O)Nc3ccc(F)cc3)ccc2OC)cc1 [Example 7] | 500 to 1000 | – |
| COc1cccc(CNC(=O)Nc2cccc(SC)c2)c1 [Example 8] | 500 to 1000 | – |
| COc1cccc(CNC(=O)Nc2ccccc2)c1 [Example 9] | 500 to 1000 | – |
| COc1cccc(CNC(=O)Nc2cccc(OC)c2)c1 [Example 10] | 500 to 1000 | – |
| COc1cccc(CNC(=O)Nc2ccc(F)cc2)c1 [Example 11] | 500 to 1000 | – |
| COc1ccc(CNC(=O)Nc2cccc(SC)c2)cc1OC [Example 12] | 500 to 1000 | – |
| COc1ccc(CNC(=O)Nc2ccccc2)cc1OC [Example 13] | 500 to 1000 | – |
| COc1cccc(NC(=O)NCc2ccc(OC)c(OC)c2)c1 [Example 14] | 500 to 1000 | – |
| COc1ccc(CNC(=O)Nc2ccc(F)cc2)cc1OC [Example 15] | 500 to 1000 | – |
| CSc1cccc(NC(=O)NCc2ccc3c(c2)OCO3)c1 [Example 16] | 500 to 1000 | – |
| O=C(NCc1ccc2c(c1)OCO2)Nc1ccccc1 [Example 17] | 500 to 1000 | – |
| COc1cccc(NC(=O)NCc2ccc3c(c2)OCO3)c1 [Example 18] | 500 to 1000 | – |
| O=C(NCc1ccc2c(c1)OCO2)Nc1ccc(F)cc1 [Example 19] | 500 to 1000 | – |
| COc1cc2c(cc1OC)CN(C(=O)Nc1cccc(SC)c1)CC2 [Example 20] | 500 to 1000 | – |
| COc1cc2c(cc1OC)CN(C(=O)Nc1ccccc1)CC2 [Example 21] | 500 to 1000 | – |
| COc1cccc(NC(=O)N2CCc3cc(OC)c(OC)cc3C2)c1 [Example 22] | 500 to 1000 | – |
| COc1cc2c(cc1OC)CN(C(=O)Nc1ccc(F)cc1)CC2 [Example 23] | 500 to 1000 | – |

| SMILES | IC50 (human VR1; [1]) [nM] | other results |
| --- | --- | --- |
| COCOc1cccc(CNC(=O)Nc2ccccc2)c1 [Example 24] | 500 to 1000 | – |
| COCOc1cccc(CNC(=O)Nc2cccc(OC)c2)c1 [Example 25] | 500 to 1000 | – |
| COCOc1cccc(CNC(=O)Nc2cccc(SC)c2)c1 [Example 26] | 500 to 1000 | – |
| COCOc1cccc(CNC(=O)Nc2ccc(F)cc2)c1 [Example 27] | 500 to 1000 | – |
| O=C(NCc1cccc(O)c1)Nc1ccccc1 [Example 28] | 500 to 1000 | – |
| CSc1cccc(NC(=O)NCc2cccc(O)c2)c1 [Example 29] | 500 to 1000 | – |
| COc1cccc(NC(=O)NCc2cccc(O)c2)c1 [Example 30] | 500 to 1000 | – |
| O=C(NCc1cccc(O)c1)Nc1ccc(F)cc1 [Example 31] | 500 to 1000 | – |
| COc1cc(CNC(=O)Nc2cccc(SC)c2)ccc1O [Example 32] | 100 to 500 | – |
| COc1cc(CNC(=O)Nc2ccccc2)ccc1O [Example 33] | 500 to 1000 | – |
| COc1ccc(CNC(=O)Nc2cccc(SC)c2)cc1O [Example 35] | 500 to 1000 | – |
| COc1ccc(CNC(=O)Nc2ccccc2)cc1O [Example 36] | 500 to 1000 | – |
| CSc1cccc(NC(=O)NCc2cccc(Cl)c2)c1 [Example 37] | 500 to 1000 | – |
| O=C(NCc1cccc(Cl)c1)Nc1ccccc1 [Example 38] | 500 to 1000 | – |
| COc1cccc(NC(=O)NCc2cccc(Cl)c2)c1 [Example 39] | 500 to 1000 | – |
| O=C(NCc1cccc(Cl)c1)Nc1ccc(F)cc1 [Example 40] | 500 to 1000 | – |
| O=C(NCc1ccc(Cl)c(Cl)c1)Nc1ccccc1 [Example 42] | 100 to 500 | – |
| COc1cccc(NC(=O)NCc2ccc(Cl)c(Cl)c2)c1 [Example 43] | 100 to 500 | – |
| O=C(NCc1ccc(Cl)c(Cl)c1)Nc1ccc(F)cc1 [Example 44] | 100 to 500 | – |

| SMILES | IC50 (human VR1; [1]) [nM] | other results |
| --- | --- | --- |
| CSc1cccc(NC(=O)NCc2cccc(F)c2)c1 [Example 45] | 500 to 1000 | – |
| O=C(NCc1cccc(F)c1)Nc1ccccc1 [Example 46] | 500 to 1000 | – |
| COc1cccc(NC(=O)NCc2cccc(F)c2)c1 [Example 47] | 500 to 1000 | – |
| O=C(NCc1cccc(F)c1)Nc1ccc(F)cc1 [Example 48] | 500 to 1000 | – |
| CSc1cccc(NC(=O)NCc2ccc(F)c(F)c2)c1 [Example 49] | 500 to 1000 | – |
| O=C(NCc1ccc(F)c(F)c1)Nc1ccccc1 [Example 50] | 500 to 1000 | – |
| COc1cccc(NC(=O)NCc2ccc(F)c(F)c2)c1 [Example 51] | 500 to 1000 | – |
| O=C(NCc1ccc(F)c(F)c1)Nc1ccc(F)cc1 [Example 52] | 500 to 1000 | – |
| O=C(Nc1ccc(Cl)c(C(F)(F)F)c1)NC1CCCc2ccc(O)cc21 (centres unmarked) [Example 54] | – | melting point: 201 °C |
| COc1cc(CNC(=O)Nc2cccc(C(C)=O)c2)ccc1O [Example 59] | 500 to 1000 | – |
| COC(=O)c1ccccc1NC(=O)NCc1ccc(O)c(OC)c1 [Example 61] | 500 to 1000 | – |
| COc1cc(CNC(=O)Nc2ccc([N+](=O)[O-])cc2Cl)ccc1O [Example 67] | 500 to 1000 | – |
| COc1cc(CNC(=O)NCc2ccc(Br)cc2)ccc1O [Example 68] | 100 to 500 | – |
| COc1cc2c(cc1O)CN(C(=O)Nc1ccc(Cl)c(C(F)(F)F)c1)CC2 [Example 69] | 100 to 500 | – |
| COc1cc(CNC(=O)Nc2ccccc2F)ccc1O [Example 75] | 100 to 500 | – |
| COc1cc(CNC(=O)Nc2ccc(Oc3ccccc3)cc2)ccc1O [Example 76] | – | IC50 (human VR1): < 100 nM |
| COc1cc(CNC(=O)NCCc2ccccc2)ccc1O [Example 77] | 100 to 500 | – |
| COc1cc(CNC(=O)Nc2ccccc2Cl)ccc1O [Example 79] | 100 to 500 | – |
| COc1cc(CNC(=O)Nc2cc(C(F)(F)F)ccc2Cl)ccc1O [Example 80] | < 100 | – |

Second part, led by results:

| IC50 (human VR1; [1]) [nM] | SMILES | other results |
| --- | --- | --- |
| < 100 | COc1cc(CNC(=O)Nc2cccc(Cl)c2)ccc1O [Example 81] | – |
| 100 to 500 | NS(=O)(=O)c1ccc2c(c1)CN(C(=O)Nc1ccc(Cl)c(C(F)(F)F)c1)CC2 [Example 84] | – |
| 500 to 1000 | CNS(=O)(=O)c1ccc2c(c1)CN(C(=O)Nc1ccc(Cl)c(C(F)(F)F)c1)CC2 [Example 85] | – |
| 500 to 1000 | CN(C)S(=O)(=O)c1ccc2c(c1)CN(C(=O)Nc1ccc(Cl)c(C(F)(F)F)c1)CC2 [Example 86] | – |
| 500 to 1000 | CN(C)CCNS(=O)(=O)c1ccc2c(c1)CN(C(=O)Nc1ccc(Cl)c(C(F)(F)F)c1)CC2 [Example 87] | – |
| 500 to 1000 | CN(C)S(=O)(=O)c1ccc2c(c1)CN(C(=O)Nc1ccc(Oc3ccccc3)cc1)CC2 [Example 88] | – |
| 500 to 1000 | O=C(Nc1ccc(Oc2ccccc2)cc1)N1CCc2ccc(S(=O)(=O)N3CCN(CCO)CC3)cc2C1 [Example 89] | – |
| 500 to 1000 | CS(=O)(=O)Nc1ccc2c(c1)CN(C(=O)NCc1ccc(Br)cc1)CC2 [Example 90] | – |
| 500 to 1000 | CS(=O)(=O)Nc1ccc2c(c1)CN(C(=O)Nc1ccc(Oc3ccccc3)cc1)CC2 [Example 91] | – |
| 100 to 500 | CS(=O)(=O)Nc1ccc2c(c1)CN(C(=O)Nc1ccc(Cl)c(C(F)(F)F)c1)CC2 [Example 92] | – |
| 500 to 1000 | CS(=O)(=O)Nc1ccc2c(c1)CN(C(=O)Nc1ccc(Br)cc1)CC2 [Example 93] | – |
| 500 to 1000 | O=C(Nc1ccc(Cl)c(C(F)(F)F)c1)NC1CCCc2ccc([N+](=O)[O-])cc21 (centres unmarked) [Example 94] | – |
| 500 to 1000 | CNS(=O)(=O)c1ccc2c(c1)CN(C(=O)Nc1ccc(Oc3ccccc3)cc1)CC2 [Example 95] | – |
| 500 to 1000 | CC(=O)Nc1ccc2c(c1)C(NC(=O)Nc1ccc(Cl)c(C(F)(F)F)c1)CCC2 (centres unmarked) [Example 97] | – |
| 500 to 1000 | O=C(Nc1ccccc1F)Nc1ccccc1CCO [Example 130] | – |
| 500 to 1000 | O=C(Nc1ccccc1CCO)Nc1cccc(Cl)c1Cl [Example 137] | – |

| IC50 (human VR1; [1]) [nM] | SMILES | other results |
| --- | --- | --- |
| 500 to 1000 | O=C(Nc1ccc(Cl)cc1Cl)Nc1ccccc1CCO [Example 138] | – |
| 500 to 1000 | O=C(Nc1ccccc1CCO)Nc1c(Cl)cccc1Cl [Example 139] | – |
| 500 to 1000 | CCOC(=O)c1ccccc1NC(=O)Nc1ccccc1CCO [Example 140] | – |
| 500 to 1000 | O=C(Nc1ccccc1CCO)Nc1ccccc1-c1ccccc1 [Example 141] | – |
| 500 to 1000 | CC(C)c1cccc(C(C)C)c1NC(=O)Nc1ccccc1CCO [Example 142] | – |
| 500 to 1000 | O=C(Nc1ccccc1CCO)Nc1ccc(Cl)cc1C(F)(F)F [Example 143] | – |
| 100 to 500 | O=C(Nc1cc(C(F)(F)F)ccc1Cl)Nc1ccccc1CCO [Example 144] | – |
| 500 to 1000 | O=C(Nc1cc(Cl)ccc1Cl)Nc1ccccc1CCO [Example 162] | – |
| 500 to 1000 | CCOC(=O)c1ccc(NC(=O)Nc2ccccc2CCO)cc1 [Example 163] | – |
| 500 to 1000 | O=C(Nc1ccccc1CCO)Nc1cccc2cc(O)ccc12 [Example 167] | – |
| < 100 | CN(C)c1ccc(-c2cccc(NC(=O)Nc3ccccc3CCO)c2)cc1 [Example 170] | – |
| 500 to 1000 | CC(C)(C)c1ccc(C(C)(C)C)c(NC(=O)Nc2ccccc2CCO)c1 [Example 177] | – |
| 100 to 500 | O=C(Nc1ccc(-c2ccc([N+](=O)[O-])cc2)cc1)Nc1ccccc1CCO [Example 178] | – |
| < 100 | O=C(Nc1cccc(-c2ccc(F)cc2)c1)Nc1ccccc1CCO [Example 193] | – |
| < 100 | O=C(Nc1cccc(-c2ccc(Cl)cc2)c1)Nc1ccccc1CCO [Example 194] | – |
| < 100 | COc1cccc(NC(=O)Nc2cccc(-c3ccc(Cl)cc3)c2)c1CCO [Example 251] | – |
